Assay results from PMC7694092, “Antibacterial Cyclic Tripeptides from Antarctica-Sponge-Derived Fungus Aspergillus insulicola HDN151418” (Marine Drugs, 2020).
Converted amounts (≈) assume the structure as drawn. Where two headings read alike, the source gives them in different places.

Experiments:
Proteus species = experiment: organism not typed
Protocol: (§1) The antimicrobial activities of 1–6 against Bacillus cereus, Proteus species, Mycobacterium phlei, Bacillus subtilis, Vibrio parahemolyticus, Edwardsiella tarda, MRCNS, and MRSA were evaluated as previously reported by using the agar dilution method. […] All strains were donated by the Qingdao municipal hospital.

Edwardsiella tarda = experiment: microbe, parasite or virus in culture
Protocol: as §1

Bacillus cereus = experiment: microbe, parasite or virus in culture
Protocol: as §1

Bacillus subtilis = experiment: microbe, parasite or virus in culture
Protocol: as §1

Mycobacterium phlei = experiment: microbe, parasite or virus in culture
Protocol: as §1

in vitro [1] = assay type: cell-based; conditions: human; BEL-7402 cells; read-out: cytotoxic activity IC50
Source text: (§2) HeLa (human epithelial carcinoma cell line), HCT-116 (human colon cancer cell line), MCF-7 (human breast adenocarcinoma cell line), A549 (human lung adenocarcinoma cell line), SH-SY5Y (human neuroblastoma cell line), MDA-MB-231 (human breast cancer cell line), HO8910 (human ovarian carcinoma cell line), and MGC-803 (human stomach carcinoma cell line) were ordered from Shanghai Institute of Biochemistry and Cell Biology, Chinese Academy of Sciences (Shanghai, China). K562 (human leukaemia cell line), BEL-7402 (human hepatic carcinoma cell line), L-02 (human normal hepatic cell line), GES-1 (human gastric epithelial cell line), U87 (human primary glioblastoma cell line), ASPC-1 (human pancreatic cancer cell line), PC-3 (human prostate carcinoma cell line), and NCI-H446 (human small cell lung cancer cell line) were ordered from the American Type Culture Collection (ATCC, Gaithersburg, MD, USA).

in vitro [2] = assay type: cell-based; conditions: human; A549 cells; read-out: cytotoxic activity IC50
Source text: as §2

in vitro [3] = assay type: cell-based; conditions: human; MGC-803 cells; read-out: cytotoxic activity IC50
Source text: as §2

in vitro [4] = assay type: cell-based; conditions: human; SH-SY5Y cells; read-out: cytotoxic activity IC50
Vibrio parahemolyticus = experiment: Antimicrobial activity (MIC), agar dilution method; assay type: cell-based; conditions: performed in triplicates
Protocol: as §1

in vitro [5] = assay type: cell-based; conditions: human; PC-3 cells; read-out: cytotoxic activity IC50
in vitro [6] = assay type: cell-based; conditions: human; HCT-116 cells; read-out: cytotoxic activity IC50
Source text: as §2

in vitro [7] = conditions: human, GES-1 cells (gastric epithelial cell line)
in vitro [8] = assay type: cell-based; conditions: human; ASPC-1 cells; read-out: cytotoxic activity IC50
in vitro [9] = assay type: cell-based; conditions: human; L-02 cells; read-out: cytotoxic activity IC50
Source text: as §2

in vitro [10] = assay type: cell-based; conditions: human; NCI-H446 cells; read-out: cytotoxic activity IC50
Source text: as §2

in vitro [11] = assay type: cell-based; conditions: human; K562 cells; read-out: cytotoxic activity IC50
Source text: as §2

in vitro [12] = assay type: cell-based; conditions: human; MDA-MB-231 cells; read-out: cytotoxic activity IC50
Source text: as §2

in vitro [13] = assay type: cell-based; conditions: human; U87 cells; read-out: cytotoxic activity IC50
in vitro [14] = assay type: cell-based; conditions: human; MCF-7 cells; read-out: cytotoxic activity IC50
Source text: as §2

in vitro [15] = assay type: cell-based; conditions: human; Hela cells; read-out: cytotoxic activity IC50
Source text: as §2

MRSA = test system: MRSA
Protocol: as §1

MRCNS = test system: MRCNS
Protocol: as §1

in vitro [16] = assay type: cell-based; conditions: human; HO8910 cells; read-out: cytotoxic activity IC50
Source text: as §2

[17] = dissolved in solvent mixture MeOH-H2O and exposed to air for two weeks; LC-MS
Source text: It is well-known that some artificial compounds are formed from natural compounds due to oxidation when exposed to air.

| Compound | MIC, P. species (Proteus species) | IC50 (in vitro [1]) | IC50 (in vitro [2]) | IC50 (in vitro [3]) | IC50 (in vitro [4]) | MIC, V. parahemolyticus (Vibrio parahemolyticus) | IC50 (in vitro [5]) | IC50 (in vitro [6]) | IC50 (in vitro [7]) | IC50 (in vitro [8]) | MIC, E. tarda (Edwardsiella tarda) | MIC, B. cereus (Bacillus cereus) | MIC, B. subtilis (Bacillus subtilis) | MIC, M. phlei (Mycobacterium phlei) | IC50 (in vitro [9]) | IC50 (in vitro [10]) | IC50 (in vitro [11]) | IC50 (in vitro [12]) | IC50 (in vitro [13]) | IC50 (in vitro [14]) | also measured |
| --- | --- | --- | --- | --- | --- | --- | --- | --- | --- | --- | --- | --- | --- | --- | --- | --- | --- | --- | --- | --- | --- |
| O=C(O)c1cn(C2CC2)c2cc(N3CCNCC3)c(F)cc2c1=O [CIP, Ciprofloxacin, reference compound] | – | – | – | – | – | – | – | – | – | – | – | – | – | – | – | – | – | – | – | – | MIC (Proteus species; read-out: MIC, P. species): 0.195 µM (≈ 0.0646 µg/mL); MIC (Edwardsiella tarda; Edwardsiella tarda, read-out: MIC, E. tarda): 0.0125 µM (≈ 0.00414 µg/mL); MIC (Bacillus cereus; Bacillus cereus, read-out: MIC, B. cereus): 0.78 µM (≈ 0.258 µg/mL); MIC (Bacillus subtilis; Bacillus subtilis, read-out: MIC, B. subtilis): 0.195 µM (≈ 0.0646 µg/mL); MIC (Mycobacterium phlei; Mycolicibacterium phlei, read-out: MIC, M. phlei): 0.78 µM (≈ 0.258 µg/mL) |
| CC(C)[C@H]1C(=O)N(C)[C@@H](C)C(=O)NCCC[C@H](NC(=O)/C=C/C=C/C(=O)O)C(=O)N1C [Compound 1] | 3.13 µM (≈ 1.37 µg/mL) | > 30 µM | > 30 µM | > 30 µM | > 30 µM | 3.13 µM (≈ 1.37 µg/mL) | > 30 µM | > 30 µM | > 30 µM | > 30 µM | 1.56 µM (≈ 0.681 µg/mL) | 3.13 µM (≈ 1.37 µg/mL) | 6.25 µM (≈ 2.73 µg/mL) | 3.13 µM (≈ 1.37 µg/mL) | > 30 µM | > 30 µM | > 30 µM | > 30 µM | > 30 µM | > 30 µM | IC50 (in vitro [15]): > 30 µM; MIC, MRSA (MRSA): 25.0 µM (≈ 10.9 µg/mL); MIC, MRCNS (MRCNS): 12.5 µM (≈ 5.46 µg/mL); IC50 (in vitro [16]): > 30 µM |
| COC(=O)/C=C/C=C/C(=O)N[C@H]1CCCNC(=O)[C@H](C)N(C)C(=O)[C@H](C(C)C)N(C)C1=O [Compound 2, (2′E,4′E)-cyclo-[(NMe-L-Ala)-(NMe-L-Val)-(Nα-6-methoxy-6-oxohexa-2,4-dienoyl-L-Orn)]] | 6.25 µM (≈ 2.82 µg/mL) | > 30 µM | > 30 µM | > 30 µM | > 30 µM | 6.25 µM (≈ 2.82 µg/mL) | > 30 µM | > 30 µM | > 30 µM | > 30 µM | 1.56 µM (≈ 0.703 µg/mL) | 6.25 µM (≈ 2.82 µg/mL) | 12.5 µM (≈ 5.63 µg/mL) | 12.5 µM (≈ 5.63 µg/mL) | > 30 µM | > 30 µM | > 30 µM | > 30 µM | > 30 µM | > 30 µM | IC50 (in vitro [15]): > 30 µM; MIC, MRSA (MRSA): 25.0 µM (≈ 11.3 µg/mL); MIC, MRCNS (MRCNS): 25.0 µM (≈ 11.3 µg/mL); IC50 (in vitro [16]): > 30 µM |
| CO[C@H](C)[C@@H](/C=C/C=C/C(=O)N(C)[C@H]1CCCN(C)C(=O)[C@H](C)N(C)C(=O)[C@H](C(C)C)N(C)C1=O)OC [Compound 3] | >50.0 µM | > 30 µM | > 30 µM | > 30 µM | > 30 µM | 25.0 µM (≈ 13.1 µg/mL) | > 30 µM | > 30 µM | > 30 µM | > 30 µM | 25.0 µM (≈ 13.1 µg/mL) | >50.0 µM | >50.0 µM | >50.0 µM | > 30 µM | > 30 µM | > 30 µM | > 30 µM | > 30 µM | > 30 µM | IC50 (in vitro [15]): > 30 µM; MIC, MRSA (MRSA): >50.0 µM; MIC, MRCNS (MRCNS): >50.0 µM; IC50 (in vitro [16]): > 30 µM |
| CO[C@H](/C=C/C=C/C(=O)N[C@H]1CCCNC(=O)[C@H](C)N(C)C(=O)[C@H](C(C)C)N(C)C1=O)[C@@H](C)O [Compound 4, (2′E,4′E)-cyclo-[(NMe-L-Ala)-(NMe-L-Val)-(Nα-(6R,7R)-7-hydroxy-6-methoxyocta-2,4-dienoyl-L-Orn)]] | 25.0 µM (≈ 12 µg/mL) | > 30 µM | > 30 µM | > 30 µM | > 30 µM | 25.0 µM (≈ 12 µg/mL) | > 30 µM | > 30 µM | > 30 µM | > 30 µM | 25.0 µM (≈ 12 µg/mL) | 25.0 µM (≈ 12 µg/mL) | >50.0 µM | >50.0 µM | > 30 µM | > 30 µM | > 30 µM | > 30 µM | > 30 µM | > 30 µM | IC50 (in vitro [15]): > 30 µM; MIC, MRSA (MRSA): >50.0 µM; MIC, MRCNS (MRCNS): >50.0 µM; IC50 (in vitro [16]): > 30 µM |
| CC(C)[C@H]1C(=O)N(C)[C@@H](C)C(=O)NCCC[C@H](NC(=O)/C=C/C=C/C=O)C(=O)N1C [Compound 5, sclerotiotide F] | 25.0 µM (≈ 10.5 µg/mL) | > 30 µM | > 30 µM | > 30 µM | > 30 µM | 25.0 µM (≈ 10.5 µg/mL) | > 30 µM | > 30 µM | > 30 µM | > 30 µM | 25.0 µM (≈ 10.5 µg/mL) | 25.0 µM (≈ 10.5 µg/mL) | >50.0 µM | >50.0 µM | > 30 µM | > 30 µM | > 30 µM | > 30 µM | > 30 µM | > 30 µM | IC50 (in vitro [15]): > 30 µM; MIC, MRSA (MRSA): >50.0 µM; MIC, MRCNS (MRCNS): >50.0 µM; IC50 (in vitro [16]): > 30 µM |
| C/C=C/C=C/C=C/C(=O)N[C@H]1CCCNC(=O)[C@H](C)N(C)C(=O)[C@H](C(C)C)N(C)C1=O [Compound 6, sclerotiotide B] | >50.0 µM | > 30 µM | > 30 µM | > 30 µM | > 30 µM | >50.0 µM | > 30 µM | > 30 µM | > 30 µM | > 30 µM | >50.0 µM | >50.0 µM | >50.0 µM | >50.0 µM | > 30 µM | > 30 µM | > 30 µM | > 30 µM | > 30 µM | > 30 µM | chemical stability (products formed) [17]: compounds 4 and 5 were also detected from the product; IC50 (in vitro [15]): > 30 µM; MIC, MRSA (MRSA): >50.0 µM; MIC, MRCNS (MRCNS): >50.0 µM; IC50 (in vitro [16]): > 30 µM |
